Experimental data published in patent US10745382B2 (BRISTOL-MYERS SQUIBB COMPANY, priority 2015, dated 2020).

Target: T1, PD-1/PD-L1 (Homo sapiens, UniProt Q9NZQ7)
T1 construct: made in house; host or cells: HEK293T
Assay: PD-1/PD-L1 Homogenous Time-Resolved Fluorescence (HTRF) binding assay
Details: PD-L1-His 10 nM, PD-1-Ig 20 nM; value given as range class; read-out: Range or IC50
Outline: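 Read-out is time-resolved FRET between europium cryptate-labelled anti-Ig (1 nM final) and APC-labelled anti-His (20 nM final), both dispensed onto the binding mix. Assay buffer: dPBS containing 0.1% bovine serum albumin and 0.05% Tween-20.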

T1 sequence (Q9NZQ7 with tags, fused parts or gaps): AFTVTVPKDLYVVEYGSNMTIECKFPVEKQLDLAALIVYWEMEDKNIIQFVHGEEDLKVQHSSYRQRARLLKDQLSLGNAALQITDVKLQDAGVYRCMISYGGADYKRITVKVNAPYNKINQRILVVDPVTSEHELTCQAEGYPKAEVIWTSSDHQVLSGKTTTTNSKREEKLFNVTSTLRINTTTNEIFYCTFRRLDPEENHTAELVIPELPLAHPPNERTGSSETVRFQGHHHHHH

SMILES | IC50 [nM]
Cc1c(COc2cc(OCc3cncc(C#N)c3)c(CN3CCCC[C@H]3C(=O)Oc3ccc([N+](=O)[O-])cc3)cc2Cl)cccc1-c1cccc(OCCCN2CC[C@@H](O)C2)c1C [Example 2370, 4-nitrophenyl (S)-1-(5-chloro-2-((5-cyanopyridin-3-yl)methoxy)-4-((3′-(3-((R)-3-hydroxypyrrolidin-1-yl)propoxy)-2,2′-dimethyl-[1,1′-biphenyl]-3-yl)methoxy)benzyl)piperidine-2-carboxylate] | 10 to 100
Cc1c(COc2cc(OCc3cncc(C#N)c3)c(C(=O)NC(C)(CO)CO)cc2Cl)cccc1-c1cccc(OCCCN2CC[C@@H](O)C2)c1C [Example 2378, (R)-5-chloro-2-((5-cyanopyridin-3-yl)methoxy)-N-(1,3-dihydroxy-2-methylpropan-2-yl)-4-((3′-(3-(3-hydroxypyrrolidin-1-yl)propoxy)-2,2′-dimethyl-[1,1′-biphenyl]-3-yl)methoxy)benzamide] | 0.21 to 10
Cc1c(COc2cc(OCc3cncc(C#N)c3)c(C(=O)NCCO)cc2Cl)cccc1-c1cccc(OCCCN2CC[C@@H](O)C2)c1C [Example 2379, (R)-5-chloro-2-((5-cyanopyridin-3-yl)methoxy)-N-(2-hydroxyethyl)-4-((3′-(3-(3-hydroxypyrrolidin-1-yl)propoxy)-2,2′-dimethyl-[1,1′-biphenyl]-3-yl)methoxy)benzamide] | 0.21 to 10
Cc1c(COc2cc(OCc3cncc(C#N)c3)c(C(=O)N3CCCC[C@H]3C(=O)O)cc2Cl)cccc1-c1cccc(OCCCN2CC[C@@H](O)C2)c1C [Example 2380, (S)-1-(5-chloro-2-((5-cyanopyridin-3-yl)methoxy)-4-((3′-(3-((R)-3-hydroxypyrrolidin-1-yl)propoxy)-2,2′-dimethyl-[1,1′-biphenyl]-3-yl)methoxy)benzoyl)piperidine-2-carboxylic Acid] | 10 to 100
Cc1c(COc2cc(OCc3cncc(C#N)c3)c(C=O)cc2Cl)cccc1-c1cccc(OCCCN2CCC(O)(C(=O)O)CC2)c1C [Example 2385, 1-(3-((3′-((2-chloro-5-((5-cyanopyridin-3-yl)methoxy)-4-formylphenoxy)methyl)-2,2′-dimethyl-[1,1′-biphenyl]-3-yl)oxy)propyl)-4-hydroxypiperidine-4-carboxylic Acid] | 0.21 to 10
Cc1c(OCCCN2CC[C@@H](O)C2)cccc1-c1cccc(COc2cc(OCc3cncc(C#N)c3)c(CN[C@](C)(CO)C(=O)O)cc2Cl)c1 [Example 3015] | 0.21 to 10
Cc1c(OCCCN2CC[C@@H](O)C2)cccc1-c1cccc(COc2cc(OCc3cncc(C#N)c3)c(CN[C@H](CO)C(=O)O)cc2Cl)c1 [Example 3016, (R)-2-((5-chloro-2-((5-cyanopyridin-3-yl)methoxy)-4-((3′-(3-((R)-3-hydroxypyrrolidin-1-yl)propoxy)-2′-methyl-[1,1′-biphenyl]-3-yl)methoxy)benzyl)amino)-3-hydroxypropanoic Acid] | 0.21 to 10
Cc1c(OCCCN2CC[C@@H](O)C2)cccc1-c1cccc(COc2cc(OCc3cncc(C#N)c3)c(CN[C@](C)(CO)C(=O)O)cc2Cl)c1Cl [Example 3017, (R)-2-((5-chloro-4-((2-chloro-3′-(3-((R)-3-hydroxypyrrolidin-1-yl)propoxy)-2′-methyl-[1,1′-biphenyl]-3-yl)methoxy)-2-((5-cyanopyridin-3-yl)methoxy)benzyl)amino)-3-hydroxy-2-methylpropanoic Acid] | 0.21 to 10
Cc1c(COc2cc(OCc3cncc(C#N)c3)c(CN[C@](C)(CO)C(=O)O)cc2Cl)cccc1-c1cccc(OCCCN2[C@@H]3CC[C@H]2C[C@@H](O)C3)c1 [Example 3019, (R)-2-((5-chloro-2-((5-cyanopyridin-3-yl)methoxy)-4-((3′-(3-((1R,3R,5S)-3-hydroxy-8-azabicyclo[3.2.1]octan-8-yl)propoxy)-2-methyl-[1,1′-biphenyl]-3-yl)methoxy)benzyl)amino)-3-hydroxy-2-methylpropanoic Acid] | 0.21 to 10
Cc1ccccc1-c1cccc(COc2cc(OCc3cncc(C#N)c3)c(CN[C@@](C)(CO)C(=O)O)cc2Cl)c1C [Example 3020, (S)-2-((5-chloro-2-((5-cyanopyridin-3-yl)methoxy)-4-((2,2′-dimethyl-[1,1′-biphenyl]-3-yl)methoxy)benzyl)amino)-3-hydroxy-2-methylpropanoic Acid] | 0.21 to 10
Cc1ccccc1-c1cccc(COc2cc(OCc3cncc(C#N)c3)c(CN[C@@H](CO)C(=O)O)cc2Cl)c1C [Example 3021, (S)-2-((5-chloro-2-((5-cyanopyridin-3-yl)methoxy)-4-((2,2′-dimethyl-[1,1′-biphenyl]-3-yl)methoxy)benzyl)amino)-3-hydroxypropanoic Acid] | 0.21 to 10
Cc1ccccc1-c1cccc(COc2cc(OCc3cncc(C#N)c3)c(CN[C@](C)(CO)C(=O)O)cc2Cl)c1C [Example 3022, (R)-2-((5-chloro-2-((5-cyanopyridin-3-yl)methoxy)-4-((2,2′-dimethyl-[1,1′-biphenyl]-3-yl)methoxy)benzyl)amino)-3-hydroxy-2-methylpropanoic Acid] | 0.21 to 10
Cc1ccccc1-c1cccc(COc2cc(OCc3cncc(C#N)c3)c(CN3CCCC[C@H]3C(=O)O)cc2Cl)c1C [Example 3023, (S)-1-(5-chloro-2-((5-cyanopyridin-3-yl)methoxy)-4-((2,2′-dimethyl-[1,1′-biphenyl]-3-yl)methoxy)benzyl)piperidine-2-carboxylic Acid] | 0.21 to 10
COc1c(COc2cc(OCc3cncc(C#N)c3)c(CN[C@](C)(CO)C(=O)O)cc2Cl)cccc1-c1cccc(OCCCN2CC[C@@H](O)C2)c1C [Example 3025, (R)-2-((5-chloro-2-((5-cyanopyridin-3-yl)methoxy)-4-((3′-(3-((R)-3-hydroxypyrrolidin-1-yl)propoxy)-2-methoxy-2′-methyl-[1,1′-biphenyl]-3-yl)methoxy)benzyl)amino)-3-hydroxy-2-methylpropanoic Acid] | 0.21 to 10
Cc1cc(COc2cc(OCc3cncc(C#N)c3)c(CN[C@](C)(CO)C(=O)O)cc2Cl)c(C)c(-c2cccc(OCCCN3CC[C@@H](O)C3)c2C)c1 [Example 3026, (R)-2-((5-chloro-2-((5-cyanopyridin-3-yl)methoxy)-4-((3′-(3-((R)-3-hydroxypyrrolidin-1-yl)propoxy)-2,2′,5-trimethyl-[1,1′-biphenyl]-3-yl)methoxy)benzyl)amino)-3-hydroxy-2-methylpropanoic Acid, 2TFA] | 0.21 to 10
Cc1ccc(OCCCN2CC[C@@H](O)C2)c(C)c1-c1cccc(COc2cc(OCc3cncc(C#N)c3)c(C=O)cc2Cl)c1C [Example 3027, 5-((4-chloro-2-formyl-5-((3′-(3-((R)-3-hydroxypyrrolidin-1-yl)propoxy)-2,2′,6′-trimethyl-[1,1′-biphenyl]-3-yl)methoxy)phenoxy)methyl)nicotinonitrile] | 10 to 100
Cc1ccc(OCCCN2CC[C@@H](O)C2)c(C)c1-c1cccc(COc2cc(OCc3cncc(C#N)c3)c(CN[C@@](C)(CO)C(=O)O)cc2Cl)c1C [Example 3028, (2S)-2-((5-chloro-2-((5-cyanopyridin-3-yl)methoxy)-4-((3′-(3-((R)-3-hydroxypyrrolidin-1-yl)propoxy)-2,2′,6′-trimethyl-[1,1′-biphenyl]-3-yl)methoxy)benzyl)amino)-3-hydroxy-2-methylpropanoic Acid] | 0.21 to 10
Cc1ccc(OCCCN2CC[C@@H](O)C2)c(C)c1-c1cccc(COc2cc(OCc3cncc(C#N)c3)c(CN[C@](C)(CO)C(=O)O)cc2Cl)c1C [Example 3029, (2R)-2-((5-chloro-2-((5-cyanopyridin-3-yl)methoxy)-4-((3′-(3-((R)-3-hydroxypyrrolidin-1-yl)propoxy)-2,2′,6′-trimethyl-[1,1′-biphenyl]-3-yl)methoxy)benzyl)amino)-3-hydroxy-2-methylpropanoic Acid] | 0.21 to 10
Cc1ccc(OCCCN2CC[C@@H](O)C2)c(C)c1-c1cccc(COc2cc(OCc3cncc(C#N)c3)c(CN3CCCC[C@H]3C(=O)O)cc2Cl)c1C [Example 3030, (2S)-1-(5-chloro-2-((5-cyanopyridin-3-yl)methoxy)-4-((3′-(3-((R)-3-hydroxypyrrolidin-1-yl)propoxy)-2,2′,6′-trimethyl-[1,1′-biphenyl]-3-yl)methoxy)benzyl)piperidine-2-carboxylic Acid] | 0.21 to 10
Cc1ccc(OCCCN2CC[C@@H](O)C2)c(C)c1-c1cccc(COc2cc(OCc3cncc(C#N)c3)c(CN[C@@H](CO)C(=O)O)cc2Cl)c1C [Example 3031, (2S)-2-((5-chloro-2-((5-cyanopyridin-3-yl)methoxy)-4-((3′-(3-((R)-3-hydroxypyrrolidin-1-yl)propoxy)-2,2′,6′-trimethyl-[1,1′-biphenyl]-3-yl)methoxy)benzyl)amino)-3-hydroxypropanoic Acid] | 0.21 to 10
COc1cc(OCc2cccc(-c3cccc(OCCCN4CC[C@@H](O)C4)c3C)c2C)c(Cl)cc1C=O [Example 3032, (R)-5-chloro-4-((3′-(3-(3-hydroxypyrrolidin-1-yl)propoxy)-2,2′-dimethyl-[1,1′-biphenyl]-3-yl)methoxy)-2-methoxybenzaldehyde] | 100 to 2000
COc1cc(OCc2cccc(-c3cccc(OCCCN4CC[C@@H](O)C4)c3C)c2C)c(Cl)cc1CN[C@@](C)(CO)C(=O)O [Example 3033, (2S)-2-((5-chloro-4-((3′-(3-((R)-3-hydroxypyrrolidin-1-yl)propoxy)-2,2′-dimethyl-[1,1′-biphenyl]-3-yl)methoxy)-2-methoxybenzyl)amino)-3-hydroxy-2-methylpropanoic Acid] | 0.21 to 10
COc1cc(OCc2cccc(-c3cccc(OCCCN4CC[C@@H](O)C4)c3C)c2C)c(Cl)cc1CN[C@](C)(CO)C(=O)O [Example 3034, (2R)-2-((5-chloro-4-((3′-(3-((R)-3-hydroxypyrrolidin-1-yl)propoxy)-2,2′-dimethyl-[1,1′-biphenyl]-3-yl)methoxy)-2-methoxybenzyl)amino)-3-hydroxy-2-methylpropanoic Acid] | 0.21 to 10
